Values quoted from earlier work, collected in patent US10779570B2, “Aerosol from tobacco” (PHILIP MORRIS PRODUCTS S.A., priority 2013, dated 2020).

Settings: biomarker of exposure in urine

Row | Compound | Biomarker t1/2β [h]
1 | CC(=O)N[C@@H](CSC(C)CCO)C(=O)O (stereo partly drawn) [3-Hydroxy-1-methylpropyl-mercapturic acid] | 48

Same assay, conditions: biomarker of exposure in urine, plasma or blood

Row | Compound | Biomarker t1/2β [h]
2 | Nc1ccc2ccccc2c1 [2-Aminonaphthalene] | 9
3 | CC(=O)N[C@@H](CSCCC#N)C(=O)O [2-Cyanoethylmercapturic acid] | 17
4 | CC(=O)N[C@@H](CSCCO)C(=O)O [2-Hydroxyethyl-mercapturic acid] | 5
5 | CC(=O)N[C@@H](CSCCCO)C(=O)O [3-Hydroxypropyl-mercapturic acid] | 10
6 | Nc1ccc(-c2ccccc2)cc1 [4-Aminobiphenyl] | 26
7 | O=NN1CCC[C@H]1c1cccnc1 [NNN, N-nitrosonornicotine] | 15
8 | S-benzyl-mercapturic acid | 9

Settings: smoke constituent

Row | Compound | Organ Class toxicity
9 | C=CC=C [1,3-Butadiene] | CA, RT, RDT
10 | C=CC=O [Acrolein] | RT, CT
11 | C=CC#N [Acrylonitrile] | CA, RT
12 | c1ccccc1 [Benzene] | CA, CT, RDT
13 | [C-]#[O+] [Carbon monoxide] | RDT, CT
14 | C1CO1 [Ethylene Oxide] | CA, RT, RDT
15 | Cc1ccccc1 [Toluene] | RT, RDT
